Assays:
Assay in all cases: relative viability (nuclei count vs DMSO), 5 days (fraction); higher = more cells survive
[1] = compound: O=C(Nc1cc(C(F)(F)F)cc(C(F)(F)F)c1)c1cc(Cl)ccc1O [IMD-0354] + N=C(N)NC(=N)NCCc1ccccc1 [Phenformin] (partner 250 µM)
Method in brief: (§1)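 Lung cancer cell lines, seeded in 1536-well plates, were treated the following day by pin tool with a single drug or with five library-drug doses (not always all listed) in √10 steps on top of a fixed anchor-drug dose. Cells were fixed and nuclei stained in one step after 5 days, and nuclei were counted. Relative viability is the nuclei count for treated wells divided by that for vehicle wells, reported as medians of duplicate plates.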

[2] = compound: O=C(Nc1cc(C(F)(F)F)cc(C(F)(F)F)c1)c1cc(Cl)ccc1O [IMD-0354] + Nc1nc2[nH]cc(CCc3ccc(C(=O)N[C@@H](CCC(=O)O)C(=O)O)cc3)c2c(=O)[nH]1 [Pemetrexed] (partner 0.2 µM)
Method in brief: as §1

[3] = compound: Cc1cnc(CNC(=O)c2c(=O)c3ccc(N4CCCN(C)CC4)nc3n3c2sc2ccccc23)cn1 [CX-5461] + C[C@@H](Oc1cc(-c2cnn(C3CCNCC3)c2)cnc1N)c1c(Cl)ccc(F)c1Cl [Crizotinib] (partner 1 µM)
Method in brief: as §1

[4] = compound: Cc1cnc(CNC(=O)c2c(=O)c3ccc(N4CCCN(C)CC4)nc3n3c2sc2ccccc23)cn1 [CX-5461] + COc1cccc2cc(-c3nc([C@H]4CC[C@H](C(=O)O)CC4)n4ncnc(N)c34)[nH]c12 [OSI-027] (partner 0.5 µM)
Method in brief: as §1

UMC-11
relative viability ([1]; first compound 0.04 µM): 0.321 | relative viability ([1]; first compound 0.1265 µM): 0.229 | relative viability ([1]; first compound 0.4 µM): 0.202 | relative viability ([1]; first compound 1.265 µM): 0.167 | relative viability ([1]; first compound 4 µM): 0.181 | relative viability ([2]; first compound 0.04 µM): 0.819 | relative viability ([2]; first compound 0.1265 µM): 0.692 | relative viability ([2]; first compound 0.4 µM): 0.281 | relative viability ([2]; first compound 1.265 µM): 0.205 | relative viability ([2]; first compound 4 µM): 0.219 | relative viability ([3]; first compound 0.01 µM): 0.63 | relative viability ([3]; first compound 0.03162 µM): 0.655 | relative viability ([3]; first compound 0.1 µM): 0.694 | relative viability ([3]; first compound 0.3162 µM): 0.607 | relative viability ([3]; first compound 1 µM): 0.153 | relative viability ([4]; first compound 0.01 µM): 0.542 | relative viability ([4]; first compound 0.03162 µM): 0.431 | relative viability ([4]; first compound 0.1 µM): 0.389 | relative viability ([4]; first compound 0.3162 µM): 0.475 | relative viability ([4]; first compound 1 µM): 0.274

— the supplement of paper PMC10307832
